Laboratory results published in PubChem BioAssay (NCI).
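96-well plates; 48 h exposure; 5 concentrations. Endpoints by linear interpolation between flanking doses. Not reached: highest tested concentration assigned. The concentration for 50% growth inhibition is given as GI50. TGI denotes the concentration required for complete inhibition of growth.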

Key:
Test in all cases: NCI tumour cell line growth inhibition, 48 h
A498 renal = test system: A498 renal
EKVX NSCLC = test system: EKVX NSCLC
COLO 205 colon = test system: COLO 205 colon
HT29 colon = test system: HT29 colon
HCC-2998 colon = test system: HCC-2998 colon
OVCAR-5 ovarian = test system: OVCAR-5 ovarian
CCRF-CEM leukemia = test system: CCRF-CEM leukemia
TK-10 renal = test system: TK-10 renal
SW-620 colon = test system: SW-620 colon
SN12C renal = test system: SN12C renal
HL-60(TB) leukemia = test system: HL-60(TB) leukemia
OVCAR-4 ovarian = test system: OVCAR-4 ovarian
BT-549 breast = test system: BT-549 breast
UACC-257 melanoma = test system: UACC-257 melanoma
KM12 colon = test system: KM12 colon
SNB-19 CNS = test system: SNB-19 CNS
NCI/ADR-RES ovarian = test system: NCI/ADR-RES ovarian
OVCAR-8 ovarian = test system: OVCAR-8 ovarian
T-47D breast = test system: T-47D breast
SK-MEL-5 melanoma = test system: SK-MEL-5 melanoma
HCT-15 colon = test system: HCT-15 colon
K-562 leukemia = test system: K-562 leukemia
MDA-MB-435 = test system: MDA-MB-435
RXF 393 renal = test system: RXF 393 renal
UO-31 renal = test system: UO-31 renal
SF-268 CNS = test system: SF-268 CNS
SF-295 CNS = test system: SF-295 CNS
SK-MEL-2 melanoma = test system: SK-MEL-2 melanoma
LOX IMVI melanoma = test system: LOX IMVI melanoma
ACHN renal = test system: ACHN renal
DU-145 prostate = test system: DU-145 prostate
OVCAR-3 ovarian = test system: OVCAR-3 ovarian
M14 melanoma = test system: M14 melanoma
NCI-H522 lung = test system: NCI-H522 lung
IGROV1 ovarian = test system: IGROV1 ovarian
SK-MEL-28 melanoma = test system: SK-MEL-28 melanoma

Work on `COc1ccc2[nH]cc(-c3cc(N)n4nc(-c5c[nH]c6ccc(OC)cc56)cc4n3)c2c1` yielded a GI50 (A498 renal) of 1.92 µM, a TGI (A498 renal) of 3.86 µM and a GI50 (EKVX NSCLC) of 1.73 µM. The TGI (EKVX NSCLC) was 3.58 µM, the GI50 (COLO 205 colon) was 1.65 µM and the TGI (COLO 205 colon) was 3.13 µM. The GI50 (HT29 colon) was 1.79 µM, the TGI (HT29 colon) was 3.34 µM and the GI50 (HCC-2998 colon) was 1.97 µM. For the same compound, the TGI (HCC-2998 colon) was 3.59 µM, the GI50 (OVCAR-5 ovarian) was 2.44 µM and the TGI (OVCAR-5 ovarian) was 6.31 µM. It also gave a GI50 (CCRF-CEM leukemia) of 2.81 µM, a TGI (CCRF-CEM leukemia) of 8.78 µM and a GI50 (TK-10 renal) of 2.27 µM. For the same compound, the TGI (TK-10 renal) was 5.23 µM, the GI50 (SW-620 colon) was 1.68 µM and the TGI (SW-620 colon) was 3.26 µM. The GI50 (SN12C renal) was 1.98 µM, the TGI (SN12C renal) was 3.91 µM and the GI50 (HL-60(TB) leukemia) was 1.92 µM. It also gave a TGI (HL-60(TB) leukemia) of 4.73 µM, a GI50 (OVCAR-4 ovarian) of 2.28 µM and a TGI (OVCAR-4 ovarian) of 5.32 µM. The GI50 (BT-549 breast) was 5.54 µM, the TGI (BT-549 breast) was 21.2 µM and the GI50 (UACC-257 melanoma) was 1.73 µM. For the same compound, the TGI (UACC-257 melanoma) was 3.17 µM, the GI50 (KM12 colon) was 1.88 µM and the TGI (KM12 colon) was 3.59 µM. It also gave a GI50 (SNB-19 CNS) of 3.25 µM, a TGI (SNB-19 CNS) of 14.2 µM and a GI50 (NCI/ADR-RES ovarian) of 3.09 µM. It also gave a TGI (NCI/ADR-RES ovarian) of 14.3 µM, a GI50 (OVCAR-8 ovarian) of 1.84 µM and a TGI (OVCAR-8 ovarian) of 3.72 µM. The GI50 (T-47D breast) was 1.91 µM, the TGI (T-47D breast) was 4.13 µM and the GI50 (SK-MEL-5 melanoma) was 1.7 µM. It also gave a TGI (SK-MEL-5 melanoma) of 3.08 µM, a GI50 (HCT-15 colon) of 1.99 µM and a TGI (HCT-15 colon) of 4.98 µM. For the same compound, the GI50 (K-562 leukemia) was 2.4 µM, the TGI (K-562 leukemia) was > 100 µM and the GI50 (MDA-MB-435) was 1.74 µM. For the same compound, the TGI (MDA-MB-435) was 3.26 µM, the GI50 (RXF 393 renal) was 1.67 µM and the TGI (RXF 393 renal) was 3.23 µM. The GI50 (UO-31 renal) was 1.65 µM, the TGI (UO-31 renal) was 3.55 µM and the GI50 (SF-268 CNS) was 2.13 µM. The TGI (SF-268 CNS) was 4.77 µM, the GI50 (SF-295 CNS) was 1.87 µM and the TGI (SF-295 CNS) was 3.49 µM. The GI50 (SK-MEL-2 melanoma) was 1.79 µM, the TGI (SK-MEL-2 melanoma) was 3.5 µM and the GI50 (LOX IMVI melanoma) was 2.23 µM. It also gave a TGI (LOX IMVI melanoma) of 3.85 µM, a GI50 (ACHN renal) of 1.85 µM and a TGI (ACHN renal) of 3.45 µM. The GI50 (DU-145 prostate) was 1.93 µM, the TGI (DU-145 prostate) was 3.58 µM and the GI50 (OVCAR-3 ovarian) was 1.95 µM. The TGI (OVCAR-3 ovarian) was 3.83 µM, the GI50 (M14 melanoma) was 1.81 µM and the TGI (M14 melanoma) was 3.38 µM. The GI50 (NCI-H522 lung) was 1.72 µM, the TGI (NCI-H522 lung) was 3.32 µM and the GI50 (IGROV1 ovarian) was 2.26 µM. For the same compound, the TGI (IGROV1 ovarian) was 5.73 µM, the GI50 (SK-MEL-28 melanoma) was 1.82 µM and the TGI (SK-MEL-28 melanoma) was 3.31 µM.
